Patent US6623933B1 (priority 1999, dated 2003)

Assays:
[1] = test system: primary cultures of rat hippocampal neurons; conditions: Weaver et al. 1997; cited from earlier work
[2] = test system: primary cultures of rat hippocampal neurons; experiment: NMDA-induced increase in [Ca2+]i, Fluo-3 AM; type: cell-based; conditions: 5 μM NMDA; steroid 100 μM (3α5β 50 μM)
Procedure: (§1) Principally neuronal cultures were prepared from hippocampal tissue of fetal Sprague-Dawley rats on day 18 of embryonic development, as previously described (Brewer et al., Brain Research 494: 65-74 (1989)). Briefly, hippocampal cells were dissociated by trituration in Ca^2+/Mg^2+-free Hank's basic salt solution (Gibco) supplemented with 4.2 mM bicarbonate, 1 mM sodium pyruvate, 20 mM HEPES, 3 mg/ml bovine serum albumin (BSA). Dissociated cells were then pelleted by centrifugation (500×g, 4 min). […] Cells were then plated onto poly-L-lysine-coated 24-well culture dishes (Nunclon) at a density of 15,000 cell/cm^2 and maintained in a humidified atmosphere containing 5% CO2/95% air at 37° C. After 48 h, nonneuronal cell division was inhibited by a 48 h exposure to 1 μM cytosine arabinoside. Cultures were subsequently maintained in serum-free DMEM plus defined components and were used for experiments 16 to 24 days after plating.
DMSO was also added to controls to maintain a constant final DMSO concentration of […].
(§2) All data are expressed as mean±standard error of the mean. Statistical significance was evaluated using 95% confidence limits unless otherwise noted.

[3] = test system: primary cultures of rat hippocampal neurons; experiment: NMDA-induced neuronal death, trypan blue exclusion; type: cell-based; conditions: acute 30 μM NMDA; steroid 100 μM (3α5β 50 μM)
Procedure: as §1
Steroids were dissolved in DMSO (0.5% final concentration), and all treatment media contained 0.5% DMSO. […] Following exposure, cultures were washed 3 times with medium from sister cultures (conditioned medium). After the final wash, steroid or vehicle was reintroduced. Drugs were added to cultures in 25 μl of conditioned medium to yield a final volume of 0.25 ml per well. Except where otherwise noted, final steroid concentration was 100 μM.
The ability of neurons to exclude trypan blue was used to quantitate cell viability (Dawson et al., Proc Natl Acad Sci USA 88: 6368-6371 (1991)). […] Cultures were then fixed with 4% paraformaldehyde in PBS for 30 min, at whichtime the fixative was replaced with PBS. The number of stained and unstained neurons were counted in 4 high-power fields per culture well, using an inverted phase contrast microscope under both bright field and phase contrast settings. Experiments were performed in triplicate, and all assessments were made with the experimenter blind to the treatment of each culture well. Percent cell death is expressed as follows: (number of trypan blue stained neurons)/(total number of neurons)×100%.
as §2

[4] = target: T1, NR1100+NR2A NMDA receptor (Rattus norvegicus, UniProt P35439+Q00959); experiment: NMDA-induced current (INMDA), Xenopus oocytes, Example 2; type: cell-based; conditions: 100 μM NMDA, 100 μM steroid
T1 construct: expressed in transfected cells; host or cells: Xenopus oocytes co-injected with NR1100 and NR2A cRNA
T1 sequence (Q00959 23-1464, other chains not shown): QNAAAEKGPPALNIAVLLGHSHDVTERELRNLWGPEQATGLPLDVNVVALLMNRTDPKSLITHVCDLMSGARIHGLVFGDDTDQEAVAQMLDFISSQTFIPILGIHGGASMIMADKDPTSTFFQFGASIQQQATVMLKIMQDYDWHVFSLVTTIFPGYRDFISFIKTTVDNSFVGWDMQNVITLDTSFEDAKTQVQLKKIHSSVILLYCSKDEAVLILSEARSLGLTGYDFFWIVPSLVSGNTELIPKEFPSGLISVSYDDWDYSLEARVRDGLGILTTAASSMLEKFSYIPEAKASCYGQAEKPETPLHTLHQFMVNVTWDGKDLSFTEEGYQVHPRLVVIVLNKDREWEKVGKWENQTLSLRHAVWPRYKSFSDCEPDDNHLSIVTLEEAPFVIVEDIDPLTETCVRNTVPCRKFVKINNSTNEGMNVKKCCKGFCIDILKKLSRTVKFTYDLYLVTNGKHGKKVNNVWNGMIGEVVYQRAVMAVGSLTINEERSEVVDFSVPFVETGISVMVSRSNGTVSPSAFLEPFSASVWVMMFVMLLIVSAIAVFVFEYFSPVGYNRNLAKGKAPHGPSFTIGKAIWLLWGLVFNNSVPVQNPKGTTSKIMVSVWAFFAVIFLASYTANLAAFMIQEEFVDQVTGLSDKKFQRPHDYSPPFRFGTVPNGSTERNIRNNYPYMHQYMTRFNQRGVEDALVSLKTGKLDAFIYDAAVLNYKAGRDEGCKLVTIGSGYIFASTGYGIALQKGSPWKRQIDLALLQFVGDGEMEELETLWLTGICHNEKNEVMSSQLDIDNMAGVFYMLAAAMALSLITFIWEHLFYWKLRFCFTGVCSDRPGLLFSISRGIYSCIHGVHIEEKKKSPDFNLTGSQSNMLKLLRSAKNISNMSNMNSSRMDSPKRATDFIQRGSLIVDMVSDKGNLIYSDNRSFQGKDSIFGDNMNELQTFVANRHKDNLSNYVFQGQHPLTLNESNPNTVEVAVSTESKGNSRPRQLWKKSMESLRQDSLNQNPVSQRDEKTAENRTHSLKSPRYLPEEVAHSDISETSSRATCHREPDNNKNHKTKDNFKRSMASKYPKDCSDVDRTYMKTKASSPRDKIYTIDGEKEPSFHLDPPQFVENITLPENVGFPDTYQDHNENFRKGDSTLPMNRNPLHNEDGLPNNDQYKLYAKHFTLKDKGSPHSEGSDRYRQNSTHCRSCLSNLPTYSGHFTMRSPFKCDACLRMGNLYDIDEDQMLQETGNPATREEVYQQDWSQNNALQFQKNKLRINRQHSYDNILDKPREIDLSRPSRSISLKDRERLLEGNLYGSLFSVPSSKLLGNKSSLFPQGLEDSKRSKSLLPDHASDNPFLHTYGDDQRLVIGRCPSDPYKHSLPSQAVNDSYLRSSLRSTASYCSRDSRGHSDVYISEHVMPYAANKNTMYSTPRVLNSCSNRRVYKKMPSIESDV
Procedure: NR1100 (NR1G) and NR2A clones were kindly provided by Dr. R. S. Zukin (Albert Einstein College of Medicine, New York, N.Y.) and Dr. S. Nakanishi (Faculty of Medicine, Kyoto University, Kyoto, Japan), respectively. mRNA was prepared through in vitro transcription of NR1100 and NR2A cDNAs using the mMessage mMachine kit (Ambion, Tex.). On the day following isolation, batches of 20-40 selected Xenopus oocytes were injected with 50 nl of prepared RNA solution (0.5 ng NR1100 and 5 ng of NR2A mRNA/oocyte). Oocytes were maintained in glass petri dishes containing Barth's solution (84 mM NaCl, 1 mM KCl, 2.4 mM NaHCO3, 0.82 mM MgSO4, 0.41 mM CaCl2, 0.33 mM Ca(NO3)2, 2.5 mM pyruvate, 0.1 mg/ml gentamycin, 7.5 mM Tris/HCl, pH 7.4) in an incubator at 18° C. Oocytes were used for electrophysiological experiments 4-10 days after injection.
Recordings from oocytes were obtained using the two electrode voltage-clamp mode with an Axoclamp-2A amplifier (Axon Instruments). The resistance of microelectrodes, pulled from glass capillaries and filled with 3 M KCl solution, was 2.5-3.5 M. Membrane potential was clamped at −70 mV. Drugs were applied by a gravity-driven external perfusion system. Drug application and data acquisition were carried out with custom-written software implemented in the SuperScopeII programming language (GW Instruments, Somerville, Mass.).
The degree of modulation of NMDA-induced Ca^2+ influx, cell death, and currents is expressed as the percent change, defined as (I′/I−1)×100%, where I and I′ are the NMDA-induced responses in the absence and presence of modulator, respectively. All data are expressed as mean±standard error of the mean. Statistical significance was evaluated using 95% confidence limits unless otherwise noted.

[5] = test system: middle cerebral artery occlusion in rats; conditions: Weaver et al. 1997; cited from earlier work

Compound	neuroprotection against NMDA-induced neuronal death [1]	reduction of NMDA-induced rise in [Ca2+]i [2]	inhibition of NMDA-induced neuronal death [3]	inhibition of INMDA [4]	inhibition of neuronal death after middle cerebral artery occlusion [5]
C[C@]12CC[C@@H]3c4ccc(O)cc4CC[C@H]3[C@@H]1CC[C@@H]2O [17β-estradiol]	neuroprotective against NMDA-induced neuronal death				
pregnanolone hemisuccinate [3α5βHS]		approximately 40%	54±3%	about equally effective in inhibiting INMDA	effective at inhibiting the neuronal death
